For three molecules, IC50 results are on record in ChEMBL document CHEMBL1142548, “Time-dependent intracellular trafficking of FITC-conjugated epigallocatechin-3-O-gallate in L-929 cells” (Bioorg Med Chem, 2008).

This assay relates to L1210. Nature of the assay: Cytotoxicity against mouse L1210 cells after 24 hrs by WST8 assay. It counts as functional, cell-based. The conditions noted are these: L1210, 24 h. In general terms: Tetrazolium assays rely on reduction of a dye to a coloured formazan, in cell work by metabolically active cells.

Bounds are passed on as bounds.

The molecule `O=C(O[C@@H]1Cc2c(O)cc(O)cc2O[C@@H]1c1cc(O)c(O)c(O)c1)c1cc(O)c(O)c(OC(=S)Nc2ccc3c(c2)C(=O)OC32c3ccc(O)cc3Oc3cc(O)ccc32)c1` gave an IC50 of no less than 325 µM.
In the case of `O=C1OC2(c3ccc(O)cc3Oc3cc(O)ccc32)c2ccc(N=C=S)cc21` it was 700 µM; in that of `O=C(O[C@@H]1Cc2c(O)cc(O)cc2O[C@@H]1c1cc(O)c(O)c(O)c1)c1cc(O)c(O)c(O)c1` [EPIGALOCATECHIN GALLATE], 690 µM.

Usually IC50 stands for the concentration that inhibits the measured activity by half.
